Test results as given in the supplement of paper PMC8960247.
Counter-ions that a name gives are not always drawn. ± gives the standard error.

These molecules were tested on 621-103 (TSC2-rescued) (assay: relative viability vs DMSO; higher = less cytotoxic). Conditions: 0.0001 µM; serum: 10% FBS; 72 h.
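Further: immortalized renal angiomyolipoma cells stably carrying empty vector or TSC2, dosed in 384-well plates in DMEM, viability normalized to vehicle-treated wells within each plate.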

CCS(=O)(=O)Nc1ccc2c(c1)/C(=C(/Nc1ccc(CN3CCCCC3)cc1)c1ccccc1)C(=O)N2 [Hesperadin] and Cc1ccc(NC(=O)c2ccc(CN3CCN(C)CC3)cc2)cc1Nc1nccc(-c2cccnc2)n1 [Imatinib (STI571)] are within error of each other in relative viability: 100 ± 3.2% for the first, 94.6 ± 4.2% for the second.

Going from CC[C@H](c1ccc(O)cc1)[C@@H](CC)c1ccc(O)cc1 [Hexestrol (Bibenzyl)] to CCN(CC)Cc1ccc2cc(COC(=O)Nc3ccc(C(=O)NO)cc3)ccc2c1 [ITF2357], the relative viability rises from 89.4 ± 5.1% to 98.21 ± 0.79%.

Going from O=C1[C@H](Cc2ccc(O)cc2)N2C(=O)CCN(C(=O)NCc3ccccc3)[C@H]2CN1Cc1cccc2ccccc12 [ICG-001] to Cc1ccc(C(=O)N(CCCN)[C@@H](c2nc3cc(Cl)ccc3c(=O)n2Cc2ccccc2)C(C)C)cc1 [Ispinesibmesilate], the relative viability falls from 105 ± 2.9% to 68.8 ± 3%.

Compared with CC(C)Cc1ccc(C(C)C(=O)O)cc1 (configuration not stated) [Ibuprofen], CC(C)NCC(O)c1ccc(O)c(O)c1 (configuration not stated) [Isoprenaline HCl] is lower in relative viability: 105.8 ± 0.48% for the first, 95.6 ± 2% for the second.

Going from COc1ccc(-c2oc3c(CC=C(C)C)c(O[C@@H]4O[C@H](CO)[C@@H](O)[C@H](O)[C@H]4O)cc(O)c3c(=O)c2O[C@@H]2O[C@@H](C)[C@H](O)[C@@H](O)[C@H]2O)cc1 [Icariin] to CCc1c2c(nc3ccc(OC(=O)N4CCC(N5CCCCC5)CC4)cc13)-c1cc3c(c(=O)n1C2)COC(=O)[C@]3(O)CC [Irinotecan HCl Trihydrate], the relative viability falls from 116 ± 1.2% to 107 ± 5.2%.

Going from Cc1ccc(NC(=O)c2ccc(CN3CCN(C)CC3)cc2)cc1Nc1nccc(-c2cccnc2)n1 [Imatinib Mesylate] to CCCCC1=NC2(CCCC2)C(=O)N1Cc1ccc(-c2ccccc2-c2nnn[nH]2)cc1 [Irbesartan (Avapro)], the relative viability rises from 95.2 ± 5.4% to 102 ± 1.3%.

CCc1c2c(nc3ccc(OC(=O)N4CCC(N5CCCCC5)CC4)cc13)-c1cc3c(c(=O)n1C2)COC(=O)[C@]3(O)CC [Irinotecan] and Clc1ccc(C(Cn2ccnc2)OCc2c(Cl)cccc2Cl)c(Cl)c1 (configuration not stated) [Isoconazole] are the same in relative viability: 104 ± 4.3% for the first, 104 ± 2.4% for the second.

Same assay, conditions: 0.001 µM; serum: 10% FBS; 72 h

Compared with CCS(=O)(=O)Nc1ccc2c(c1)/C(=C(/Nc1ccc(CN3CCCCC3)cc1)c1ccccc1)C(=O)N2 [Hesperadin], Cc1ccc(NC(=O)c2ccc(CN3CCN(C)CC3)cc2)cc1Nc1nccc(-c2cccnc2)n1 [Imatinib (STI571)] is higher in relative viability: 93.1 ± 1.2% for the first, 97.664 ± 0.066% for the second.

Going from CC[C@H](c1ccc(O)cc1)[C@@H](CC)c1ccc(O)cc1 [Hexestrol (Bibenzyl)] to CCN(CC)Cc1ccc2cc(COC(=O)Nc3ccc(C(=O)NO)cc3)ccc2c1 [ITF2357], the relative viability rises from 89.3 ± 4% to 95.5 ± 1.7%.

Compared with O=C1[C@H](Cc2ccc(O)cc2)N2C(=O)CCN(C(=O)NCc3ccccc3)[C@H]2CN1Cc1cccc2ccccc12 [ICG-001], Cc1ccc(C(=O)N(CCCN)[C@@H](c2nc3cc(Cl)ccc3c(=O)n2Cc2ccccc2)C(C)C)cc1 [Ispinesibmesilate] is lower in relative viability: 109 ± 7.1% for the first, 51.76 ± 0.14% for the second.

Compared with CC(C)Cc1ccc(C(C)C(=O)O)cc1 (configuration not stated) [Ibuprofen], CC(C)NCC(O)c1ccc(O)c(O)c1 (configuration not stated) [Isoprenaline HCl] is lower in relative viability: 99.2 ± 0.35% for the first, 88 ± 5.3% for the second.

COc1ccc(-c2oc3c(CC=C(C)C)c(O[C@@H]4O[C@H](CO)[C@@H](O)[C@H](O)[C@H]4O)cc(O)c3c(=O)c2O[C@@H]2O[C@@H](C)[C@H](O)[C@@H](O)[C@H]2O)cc1 [Icariin] and CCc1c2c(nc3ccc(OC(=O)N4CCC(N5CCCCC5)CC4)cc13)-c1cc3c(c(=O)n1C2)COC(=O)[C@]3(O)CC [Irinotecan HCl Trihydrate] are within error of each other in relative viability: 105 ± 3.3% for the first, 107 ± 3.3% for the second.

Cc1ccc(NC(=O)c2ccc(CN3CCN(C)CC3)cc2)cc1Nc1nccc(-c2cccnc2)n1 [Imatinib Mesylate] and CCCCC1=NC2(CCCC2)C(=O)N1Cc1ccc(-c2ccccc2-c2nnn[nH]2)cc1 [Irbesartan (Avapro)] are within error of each other in relative viability: 90.4 ± 3.4% for the first, 96.3 ± 4.2% for the second.

Going from CCc1c2c(nc3ccc(OC(=O)N4CCC(N5CCCCC5)CC4)cc13)-c1cc3c(c(=O)n1C2)COC(=O)[C@]3(O)CC [Irinotecan] to Clc1ccc(C(Cn2ccnc2)OCc2c(Cl)cccc2Cl)c(Cl)c1 (configuration not stated) [Isoconazole], the relative viability rises from 98.62 ± 0.9% to 109 ± 4%.

Same assay, conditions: 0.01 µM; serum: 10% FBS; 72 h

First: CCS(=O)(=O)Nc1ccc2c(c1)/C(=C(/Nc1ccc(CN3CCCCC3)cc1)c1ccccc1)C(=O)N2 [Hesperadin]
Second: Cc1ccc(NC(=O)c2ccc(CN3CCN(C)CC3)cc2)cc1Nc1nccc(-c2cccnc2)n1 [Imatinib (STI571)]
The relative viability of the first is lower: 97.46 ± 0.18% for the first, 101 ± 0.77% for the second.

First: CC[C@H](c1ccc(O)cc1)[C@@H](CC)c1ccc(O)cc1 [Hexestrol (Bibenzyl)]
Second: CCN(CC)Cc1ccc2cc(COC(=O)Nc3ccc(C(=O)NO)cc3)ccc2c1 [ITF2357]
The relative viability of the first is lower: 90.4 ± 1% for the first, 96 ± 2% for the second.

Going from O=C1[C@H](Cc2ccc(O)cc2)N2C(=O)CCN(C(=O)NCc3ccccc3)[C@H]2CN1Cc1cccc2ccccc12 [ICG-001] to Cc1ccc(C(=O)N(CCCN)[C@@H](c2nc3cc(Cl)ccc3c(=O)n2Cc2ccccc2)C(C)C)cc1 [Ispinesibmesilate], the relative viability falls from 108.7 ± 0.74% to 55.41 ± 0.1%.

First: CC(C)Cc1ccc(C(C)C(=O)O)cc1 (configuration not stated) [Ibuprofen]
Second: CC(C)NCC(O)c1ccc(O)c(O)c1 (configuration not stated) [Isoprenaline HCl]
The relative viability of the first is higher: 101 ± 0.81% for the first, 91.5 ± 1.7% for the second.

First: COc1ccc(-c2oc3c(CC=C(C)C)c(O[C@@H]4O[C@H](CO)[C@@H](O)[C@H](O)[C@H]4O)cc(O)c3c(=O)c2O[C@@H]2O[C@@H](C)[C@H](O)[C@@H](O)[C@H]2O)cc1 [Icariin]
Second: CCc1c2c(nc3ccc(OC(=O)N4CCC(N5CCCCC5)CC4)cc13)-c1cc3c(c(=O)n1C2)COC(=O)[C@]3(O)CC [Irinotecan HCl Trihydrate]
The relative viability of the first is higher: 109 ± 1.2% for the first, 105 ± 1.8% for the second.

Going from Cc1ccc(NC(=O)c2ccc(CN3CCN(C)CC3)cc2)cc1Nc1nccc(-c2cccnc2)n1 [Imatinib Mesylate] to CCCCC1=NC2(CCCC2)C(=O)N1Cc1ccc(-c2ccccc2-c2nnn[nH]2)cc1 [Irbesartan (Avapro)], the relative viability falls from 101.6 ± 0.44% to 95.6 ± 3.6%.

CCc1c2c(nc3ccc(OC(=O)N4CCC(N5CCCCC5)CC4)cc13)-c1cc3c(c(=O)n1C2)COC(=O)[C@]3(O)CC [Irinotecan] and Clc1ccc(C(Cn2ccnc2)OCc2c(Cl)cccc2Cl)c(Cl)c1 (configuration not stated) [Isoconazole] are within error of each other in relative viability: 103 ± 1.1% for the first, 105 ± 1% for the second.
